9 compounds from patent publication US9969768B1 (KING SAUD UNIVERSITY, priority 2017, dated 2018) can be followed below.

Assay [1] has as its system alloxan-induced diabetic mice. Briefly: In vivo oral hypoglycemic activity, sub-acute study. As for the experimental part:
Study animals were fasted overnight, and the fasting SG levels calculated at 0 days. The test compounds were administered at a fixed dose of 200 μg/kg body weight orally (homogenized suspension in 0.5% CMC and permissible amounts of Tween 80) for 21 days at a fixed time. After 21 days, treatment was stopped and animals were left for a rest period of 7 days. Animals in the vehicle group were given an equal amount of 0.5% CMC, while those in the control group were maintained as is. During the study, blood samples were removed from all animals at 7, 14, 21 and 28 days, and the percentage change in SG was calculated. The data obtained were analyzed by one-way ANOVA followed by the Dunnett test. The results were expressed as mean±standard error of mean (SEM) for each group, while p<0.01 or p<0.05 was considered to be statistically significant. The percentage changes in blood glucose levels after oral administration, at 200 μg/kg body weight, were evaluated, and are reported in Table 5.

In assay [2] the test system is alloxan-induced diabetic mice. Briefly: In vivo oral hypoglycemic activity, acute study. The settings on record: for % Change in SG: diabetic mice. Here is the method:
The percentage change in blood glucose levels in diabetic mice after oral administration of the test compounds, at a concentration of 200 μg/kg body weight, were determined at 2, 4, 6, and 24 hours.
The synthesized compounds were screened for hypoglycemic activity in vivo using the alloxan-induced diabetic mice model. For the acute study, animals were fasted overnight and the fasting blood serum glucose (SG) level was determined at 0 hours. Then the compounds were administered at a fixed dose of 200 μg/kg body weight orally (homogenized suspension in 0.5% carboxymethyl cellulose (CMC) with Tween 80). Animals in the vehicle group were given an equal amount of 0.5% CMC, while those in the control group were maintained as is. Blood samples were removed from all animals at 2, 4, 6 and 24 hours and percentage change in SG was calculated. See, Dunn, J. S., Letchie, N. G., “Experimental alloxan diabetes in the rat,” The Lancet 242(6265): 384-387 (1943); and Mourao R. H., Silva T. G., et al., “Synthesis and Biological Activity of Novel Acridinylidene and Benzylidene thiazolidinediones,” Eur. J. Med. Chem., 40: 1129-1133 (2005).

In assay [3] the target is α-Glucosidase from Saccharomyces cerevisiae. Put plainly: α-Glucosidase inhibitory activity (chromogenic method). In kind it is biochemical. The settings on record: mean ± S.E.M., n = 6. As for the experimental part: The α-Glucosidase inhibitory activity of each compound was determined according to the chromogenic method described by Chapdelaine et al with slight modifications. See, Chapdelaine P., Tremblay R. R., Dube, J. Y., “P-Nitrophenol-alpha-D-gluco-pyranoside as substrate for measurement of maltase activity in human semen,” Clin. Chem., 24: 208-211 (1978). α-Glucosidase from Saccharomyces cerevisiae and substrate solution […] (PNPG) were prepared with 0.1 mol L^−1 of Na-phosphate buffer (pH 6.8). The inhibitors were reconstituted in […] phosphate buffer in a 96-well microplate and incubated with […] α-Glucosidase at 37° C. for 15 minutes, and then 30 μL substrate was added. After incubation with substrate for 5 minutes, release of p-nitrophenol was measured at 405 nm by spectrophotometry. Percentage of enzyme inhibition was calculated according to {1−(Asample−Ablank)/Acontrol}×100, where Asample represents absorbance of test samples, Acontrol represents absorbance of solution without sample, and A blank represents absorbance in presence of solution without substrate.

Another assay has as its system PPAR. Briefly: PPAR agonist activity, PPRE-Luc dual luciferase reporter in HepG2 cells. The settings on record: mean ± S.E.M., n = 6. The assay is classed as cell-based. As for the experimental part:
HepG2 cells were cultured in low glucose Dulbecco's Modified Eagle's medium (DMEM) supplemented with 100 U/mL streptomycin and penicillin. One day prior to transfection, the cells were plated in 96-well plates at 1.5×10^4 cells per well. After reaching 70% confluence, plasmid peroxisome proliferator responsive element-luciferase (PPRE-Luc) with firefly luciferase reporter gene and the control plasmid phRL-TK with renilla luciferase reporter gene were transfected into the cells. After 24 hours, the medium was replaced with either fresh medium (negative control) or fresh medium containing a test compound (10 mg/mL) or pioglitazone (positive control). Non-transfected cells were used as blank. After a further 24 hours, the expression of luciferases was measured using the Dual Luciferase Reporter Gene Assay Kit (Promega). The percent activation (T %) was calculated as [(L1sample−L1Blank)/(L1Negative−L1Blank)]/[(L2Sample−L2Blank)/(L2Negative−L2Blank)]×100%, where L1 represents the value for the value for firefly luciferase and L2 the value for Renilla luciferase. Xing-hua Z., Jufang Y., LiFan, W., Dacheng Y., “Synthesis and antidiabetic activity of β-acetamido ketones,” Acta Pharmaceutica Sinica 1(2):100-105 (2011).
A general note: In a reporter assay the amount or activity of a reporter protein is the signal.

For another assay, the target named is T1, DPP-IV (Homo sapiens, UniProt P27487).
T1 construct: purchased Sigma
T1 sequence (P27487 whole entry, species assumed): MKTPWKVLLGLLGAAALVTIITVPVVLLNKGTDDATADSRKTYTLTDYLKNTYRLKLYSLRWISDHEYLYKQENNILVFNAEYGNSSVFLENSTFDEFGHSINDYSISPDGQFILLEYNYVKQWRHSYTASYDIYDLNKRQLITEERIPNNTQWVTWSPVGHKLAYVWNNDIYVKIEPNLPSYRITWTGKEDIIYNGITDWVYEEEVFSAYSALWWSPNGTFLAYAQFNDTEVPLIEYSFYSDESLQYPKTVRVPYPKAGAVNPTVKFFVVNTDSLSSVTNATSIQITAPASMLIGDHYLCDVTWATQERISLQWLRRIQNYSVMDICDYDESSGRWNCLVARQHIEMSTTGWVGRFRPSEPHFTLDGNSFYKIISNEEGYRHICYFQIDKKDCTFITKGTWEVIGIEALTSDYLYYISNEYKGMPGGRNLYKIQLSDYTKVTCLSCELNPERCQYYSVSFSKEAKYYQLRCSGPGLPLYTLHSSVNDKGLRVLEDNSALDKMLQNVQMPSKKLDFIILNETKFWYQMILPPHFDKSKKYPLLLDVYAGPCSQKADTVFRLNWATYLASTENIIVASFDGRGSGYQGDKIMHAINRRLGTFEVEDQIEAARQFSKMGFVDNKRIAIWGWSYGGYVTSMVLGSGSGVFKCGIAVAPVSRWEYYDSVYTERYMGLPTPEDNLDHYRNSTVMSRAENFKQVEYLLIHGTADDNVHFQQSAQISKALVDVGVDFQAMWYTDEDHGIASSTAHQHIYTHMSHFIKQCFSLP
Put plainly: DPP-IV inhibition activity (fluorescence). In kind it is biochemical. The settings on record: mean ± S.E.M., n = 6. As for the experimental part:
A […] reaction system containing DPP-IV (Sigma), a test compound, and 25 mmol/L 4-(2-hydroxyethyl)-1-piperazineethanesulfonic acid (HEPES) buffer (containing 140 mmol/L NaCl, 1% Bovine serum albumin (BSA) and 80 mmol/L MgCl2) was pre-incubated at room temperature for 10 minutes. The reaction was initiated by the addition of […], and the reaction mixture was then incubated at room temperature for 25-45 minutes. […] A negative control (no test compound) and a blank control (no enzyme) were run simultaneously. The test compounds were initially assayed in duplicate at a concentration of 10 mg/mL.

The mark [4] stands for this setting: 7 day, 200 μg/kg body weight orally daily.
Where [5] appears, read: 7 days rest period after 21 days of treatment, 200 μg/kg orally.
Where [6] appears, read: 14 day, 200 μg/kg body weight orally daily.
The mark [7] stands for this setting: 21 day, 200 μg/kg body weight orally daily.
The mark [8] stands for this setting: 2 h after 200 μg/kg body weight orally.
Setting [9] is: 4 h after 200 μg/kg body weight orally.
Setting [10] is: 6 h after 200 μg/kg body weight orally.
Setting [11] is: 24 h after 200 μg/kg body weight orally.

With `CCc1ccc(CCOc2ccc(CC3SC(=O)NC3=O)cc2)nc1` (stereo not shown) [Pioglitazone, reference compound], the “% Change in SG” value in assay [1] (setting [4]) is −11.23%; in assay [1] (setting [5]), −43.45%; in assay [1] (setting [6]), −18.34%; in assay [1] (setting [7]) it was −50.39%; in assay [2] (setting [8]), −32.16%; in assay [2] (setting [9]) it was −22.45%. The “% Change in SG” value in assay [2] (setting [10]) is recorded as −12.34%; in assay [2] (setting [11]) it was −13.28%. Further, the “time of maximum activity post-administration” value in assay [2] (acute study, 200 μg/kg orally) amounted to 2 h.
For `COC(=O)[C@]12CCC(C)(C)C[C@H]1C1=CC[C@@H]3[C@@]4(C)CCC(=O)C(C)(C)[C@@H]4CC[C@@]3(C)[C@]1(C)CC2` [Compound 1, 3-oxo-oleanolic acid methyl ester], the values for the IC50 (in assay [3]; in the assay on PPAR; at DPP-IV) were 1.7 ± 0.03 µM, 0.12 ± 0.004 µM and 0.091 ± 0.0009 µM, respectively. Further, the “% Change in SG” value in assay [1] (setting [4]) is reported as −59.76%; in assay [1] (setting [5]), −81.20%; in assay [1] (setting [6]), −68.78%; in assay [1] (setting [7]), −84.65%; in assay [2] (setting [8]) it was −69.40%; in assay [2] (setting [9]), −71.89%. Moreover, the figures for the “% Change in SG” value in assay [2] (setting [10]) and in assay [2] (setting [11]) were −79.32% and −73.29%, respectively.
With `C[C@H]1O[C@H](O[C@H]2[C@H](O)[C@@H](O)[C@@H](O[C@H]3[C@H](O)[C@@H](O)C(O)O[C@@H]3CO)O[C@@H]2CO)[C@H](O)[C@@H](O)[C@@H]1N[C@H]1C=C(CO)[C@@H](O)[C@H](O)[C@H]1O` (stereo partly shown) [Acarbose, reference compound], the “% Change in SG” value is −18.29% in assay [1] (setting [4]); −27.65% in assay [1] (setting [5]); −24.55% in assay [1] (setting [6]); −31.78% in assay [1] (setting [7]); −29.23% in assay [2] (setting [8]); −27.87% in assay [2] (setting [9]). Further, the results for the “% Change in SG” value in assay [2] (setting [10]) and in assay [2] (setting [11]) were −20.17% and −22.39%, respectively. On DPP-IV, this compound came in with an IC50 of 176 µM.
Regarding “methyl-2-{(4-pyridyl)-N-morpholinylmethane}-3-oxo-18β-olean-12-en-28-oate [Compound 4]”, the IC50 is 0.087 ± 0.001 µM in assay [3], 0.0078 ± 0.0005 µM with PPAR and 0.0044 ± 0.0005 µM against DPP-IV. Further, the “% Change in SG” value in assay [1] (setting [4]) was −67.90%; in assay [1] (setting [5]), −86.43%; in assay [1] (setting [6]), −74.78%; in assay [1] (setting [7]), −90.87%; in assay [2] (setting [8]), −78.88%; in assay [2] (setting [9]) it was −85.89%. Besides, the “% Change in SG” value in assay [2] (setting [10]) is −90.00%; in assay [2] (setting [11]), −88.88%.
For the compound “methyl-2-{N-(morpholino)methane}-3-oxo-18β-olean-12-ene-28-oate [Compound 5]”, the “% Change in SG” value was −60.89% in assay [1] (setting [4]); −84.29% in assay [1] (setting [5]); −70.53% in assay [1] (setting [6]); −85.45% in assay [1] (setting [7]); −70.60% in assay [2] (setting [8]); −79.01% in assay [2] (setting [9]). For the same compound, the results for the “% Change in SG” value in assay [2] (setting [10]) and in assay [2] (setting [11]) were −80.43% and −75.41%, respectively.
For the compound “methyl-2-{4-pyridylidene}-3-oxo-18β-Olean-12-en-28-oate [Compound 2]”, the “% Change in SG” value was −62.35% in assay [1] (setting [4]); −86.25% in assay [1] (setting [5]); −71.78% in assay [1] (setting [6]); −87.54% in assay [1] (setting [7]); −74.70% in assay [2] (setting [8]); −81.67% in assay [2] (setting [9]). The “% Change in SG” value in assay [2] (setting [10]) was −84.30%; in assay [2] (setting [11]), −80.78%.
Turning to “methyl-2-{N-(morpholino) methane}-3β-hydroxy-3α-phenyl-18β-Olean-12-ene-28-oate [Compound 6]”, the “% Change in SG” value in assay [1] (setting [4]) is −61.68%; in assay [1] (setting [5]) it was −85.89%; in assay [1] (setting [6]), −70.54%; in assay [1] (setting [7]) it was −86.45%; in assay [2] (setting [8]), −73.60%; in assay [2] (setting [9]) it was −80.74%. In addition, the “% Change in SG” value in assay [2] (setting [10]) was −82.33%; in assay [2] (setting [11]), −77.80%.
As to `CC1(C)CC[C@]2(C(=O)O)CC[C@]3(C)C(=CC[C@@H]4[C@@]5(C)CC[C@H](O)C(C)(C)[C@@H]5CC[C@]43C)[C@@H]2C1` [Oleanolic acid, reference compound], the IC50 with PPAR came out at 14.9 µM. Moreover, the “% Change in SG” value is reported as −10.56% in assay [1] (setting [4]); −30.32% in assay [1] (setting [5]); −20.35% in assay [1] (setting [6]); −37.68% in assay [1] (setting [7]); −40.79% in assay [2] (setting [8]); −48.66% in assay [2] (setting [9]). For the same compound, the entries for the “% Change in SG” value in assay [2] (setting [10]) and in assay [2] (setting [11]) were −52.17% and −51.01%, respectively.
The compound “methyl-2-{phenyl-(4-pyridyl)-methane}-3-oxo-18β-olean-12-en-28-oate [Compound 3]” yielded a concentration for half-maximal inhibition (IC50) in assay [3] of 0.123 ± 0.004 µM. The “% Change in SG” value in assay [1] (setting [4]) is −66.76%; in assay [1] (setting [5]), −83.56%; in assay [1] (setting [6]) it was −73.65%; in assay [1] (setting [7]) it was −89.76%; in assay [2] (setting [8]), −75.78%; in assay [2] (setting [9]), −82.76%. Further, the “% Change in SG” value in assay [2] (setting [10]) was −85.74%; in assay [2] (setting [11]), −79.67%.

As usually defined, the IC50 is the concentration at which inhibition is half-maximal. Read a high IC50 as a need for much substance.
